Measurements taken from patent US8937183B2, “Detection of hydrogen peroxide” (Promega Corporation, priority 2011, dated 2015).

Assay: Detection of hydrogen peroxide using coelenterazine borate with NanoLuc luciferase
Format: biochemical
Conditions: 12.5 uM compound, 40 ng/ml NanoLuc luciferase, 200 mM Tris-Cl pH 8.5 or pH 9.0, FIG. 3
Description: PBI 4759 (10 mM; final concentration 12.5 uM), various concentrations of hydrogen peroxide and 40 ng/ml NanoLuc™ luciferase enzyme (Promega Corporation) were added to wells of a 96-well assay plate containing 200 mM Tris-Cl either at pH 8.5 or pH 9.0. Luminescence was detected on a GloMax® luminometer.

CC1(C)OB(c2ccc(COc3c(Cc4ccco4)nc4c(Cc5ccccc5)nc(-c5ccccc5)cn34)cc2)OC1(C)C [PBI 4759, 8-benzyl-2-(furan-2-ylmethyl)-6-phenyl-3-((4-(4,4,5,5-tetramethyl-1,3,2-dioxaborolan-2-yl)benzyl)oxy)imidazo[1,2-a]pyrazine]
detection of hydrogen peroxide by luminescence (in words): allows sensitive detection of hydrogen peroxide
